{
  "source": "patent US20050112573A1",
  "about": "“Method of detecting toxic substance” (priority 2001, published 2005)",
  "test_system": "yeast genes (level of expressed mRNA)",
  "assay": "DNA chip analysis of expressed mRNA of yeast genes after 2 h culture with a toxic chemical substance",
  "assay_type": "cell-based, Saccharomyces cerevisiae S288C",
  "protocol": "Yeast (Saccharomyces cerevtisiae S288C (α SUC2mal mel gap2 CUP1)) were cultured at 25° C. on YPD medium (yeast extract 1%, polypepton 2%, glucose 2%). One of toxic chemical substances was added to the cell at logarithmic growth phase, and the cell was further cultured for two hours. Cell was cultured without any chemical substance in the same condition, and was used as control. Concentrations of the chemical substances were defined to inhibit the growth of the yeast but not lead to death.\nAfter the completion of cultivation, the culture was centrifuged to collect the cells. To the cells, sodium acetate buffer (50 mM sodium acetate, 10 mM EDTA, 1% SDS) was added, and the mixture was shaken at 65° C. for five minutes, followed by returning to room temperature, and obtaining the supernatant, which procedure was repeated two times. To the supernatant, ½ amount of a solution of phenol/chloroform was added, and the mixture was centrifuged to give a supernatant, which was added with an equal amount of chloroform, and the mixture was centrifuged to give a supernatant. To the supernatant, an equal amount of isopropanol containing 0.3 M sodium acetate was added, and the mixture was allowed to stand at room temperature for 30 minutes, after which the mixture was centrifuged to give a sediment of the whole RNAs. Seventy % ethanol was added to the sediment, and the mixture was again centrifuged to give a sediment, which was then dried and dissolved in water. mRNA was isolated from the whole RNAs as followings. In view of the fact that a poly A chain is attached to the 3′ terminus of mRNA, a polynucleotide having a poly T structure which was immobilized on the surface of latex beads was used to trap the mRNA, and then the mRNA was washed and eluted with spine column (Oligotex-dT30<Super>mRNA Purification Kit, Takara). Reverse transcription of the mRNA was conducted with a reverse transcriptase (Super Script II Reverse Transcriptase; catalogue No. 18064-014, GibcoBRL) using fluorescence-labeled nucleotides to give cDNAs that were introduced with Cy3-dUTP or Cy5-dUTP during the reverse transcription.\nThe labeled cDNAs were dissolved in TE buffer (10 mM Tris-HCl/1 mM EDTA, pH8.0), and the solution was dropped on the DNA chip containing the whole genes of yeast (DNA Chip Research Inc. Japan) so that the cDNAs were hybridized on the DNA chip at 65° C. for over 12 hours. The fluoresces intensity of the DNA chip was read with a scanner, and the ratio relative to the fluorescence intensity resulting from the absence of chemical substance was estimated as the following, which is shown in Tables 1 to 9: [formula]\nIn the Tables, “Intensity” indicated in the rightmost column is a value of the level of expressed mRNA of each gene in control cells as divided by the average level of the expressions of the whole genes.",
  "data": [
    {"smiles": "COc1cc(CNC(=O)CCCCC=CC(C)C)ccc1O", "note": "[(12), 8-methyl-N-vanillyl-6-nonenamide]", "values": [
      {"measurement": "level of expressed mRNA in the presence of chemical substance/in its absence", "setting": "gene YML110C", "value": 1.1},
      {"measurement": "The level of expressed mRNA in the presence of chemical substance/absence: YML118W", "setting": "gene YML118W", "value": 0.9},
      {"measurement": "The level of expressed mRNA in the presence of chemical substance/absence: YMR068W", "setting": "gene YMR068W", "value": 0.7},
      {"measurement": "The level of expressed mRNA in the presence of chemical substance/absence: YMR071C", "setting": "gene YMR071C", "value": 0.7},
      {"measurement": "level of expressed mRNA in the presence of chemical substance/in its absence", "setting": "gene YMR105C", "value": 1.7},
      {"measurement": "The level of expressed mRNA in the presence of chemical substance/absence: YMR114C", "setting": "gene YMR114C", "value": 0.9},
      {"measurement": "The level of expressed mRNA in the presence of chemical substance/absence: YMR115W", "setting": "gene YMR115W", "value": 1.0},
      {"measurement": "The level of expressed mRNA in the presence of chemical substance/absence: YMR160W", "setting": "gene YMR160W", "value": 1.0},
      {"measurement": "level of expressed mRNA in the presence of chemical substance/in its absence", "setting": "gene YMR189W", "value": 0.6},
      {"measurement": "The level of expressed mRNA in the presence of chemical substance/absence: YMR258C", "setting": "gene YMR258C", "value": 0.9},
      {"measurement": "level of expressed mRNA in the presence of chemical substance/in its absence", "setting": "gene YMR271C", "value": 1.3},
      {"measurement": "level of expressed mRNA in the presence of chemical substance/in its absence", "setting": "gene YMR272C", "value": 1.2},
      {"measurement": "level of expressed mRNA in the presence of chemical substance/in its absence", "setting": "gene YMR296C", "value": 0.8},
      {"measurement": "level of expressed mRNA in the presence of chemical substance/in its absence", "setting": "gene YNL012W", "value": 1.3},
      {"measurement": "The level of expressed mRNA in the presence of chemical substance/absence: YNL026W", "setting": "gene YNL026W", "value": 0.9},
      {"measurement": "level of expressed mRNA in the presence of chemical substance/in its absence", "setting": "gene YNL037C", "value": 1.3},
      {"measurement": "level of expressed mRNA in the presence of chemical substance/in its absence", "setting": "gene YNL045W", "value": 0.9},
      {"measurement": "The level of expressed mRNA in the presence of chemical substance/absence: YNL058C", "setting": "gene YNL058C", "value": 1.0},
      {"measurement": "The level of expressed mRNA in the presence of chemical substance/absence: YNL063W", "setting": "gene YNL063W", "value": 1.0},
      {"measurement": "level of expressed mRNA in the presence of chemical substance/in its absence", "setting": "gene YNL104C", "value": 1.1},
      {"measurement": "level of expressed mRNA in the presence of chemical substance/in its absence", "setting": "gene YNL106C", "value": 0.8},
      {"measurement": "level of expressed mRNA in the presence of chemical substance/in its absence", "setting": "gene YNL130C", "value": 0.9},
      {"measurement": "level of expressed mRNA in the presence of chemical substance/in its absence", "setting": "gene YNL169C", "value": 1.0},
      {"measurement": "The level of expressed mRNA in the presence of chemical substance/absence: YNL176C", "setting": "gene YNL176C", "value": 0.6},
      {"measurement": "The level of expressed mRNA in the presence of chemical substance/absence: YNL181W", "setting": "gene YNL181W", "value": 0.8},
      {"measurement": "The level of expressed mRNA in the presence of chemical substance/absence: YNL191W", "setting": "gene YNL191W", "value": 0.5},
      {"measurement": "The level of expressed mRNA in the presence of chemical substance/absence: YNL194C", "setting": "gene YNL194C", "value": 0.5},
      {"measurement": "The level of expressed mRNA in the presence of chemical substance/absence: YNL200C", "setting": "gene YNL200C", "value": 0.9},
      {"measurement": "The level of expressed mRNA in the presence of chemical substance/absence: YNL212W", "setting": "gene YNL212W", "value": 0.8},
      {"measurement": "level of expressed mRNA in the presence of chemical substance/in its absence", "setting": "gene YNL231C", "value": 1.8},
      {"measurement": "The level of expressed mRNA in the presence of chemical substance/absence: YNL253W", "setting": "gene YNL253W", "value": 0.8},
      {"measurement": "The level of expressed mRNA in the presence of chemical substance/absence: YNL265C", "setting": "gene YNL265C", "value": 0.8},
      {"measurement": "The level of expressed mRNA in the presence of chemical substance/absence: YNL276C", "setting": "gene YNL276C", "value": 0.9},
      {"measurement": "level of expressed mRNA in the presence of chemical substance/in its absence", "setting": "gene YNL322C", "value": 0.7},
      {"measurement": "level of expressed mRNA in the presence of chemical substance/in its absence", "setting": "gene YNR002C", "value": 1.2},
      {"measurement": "level of expressed mRNA in the presence of chemical substance/in its absence", "setting": "gene YNR019W", "value": 1.0},
      {"measurement": "level of expressed mRNA in the presence of chemical substance/in its absence", "setting": "gene YNR033W", "value": 1.1},
      {"measurement": "The level of expressed mRNA in the presence of chemical substance/absence: YNR051C", "setting": "gene YNR051C", "value": 0.9},
      {"measurement": "level of expressed mRNA in the presence of chemical substance/in its absence", "setting": "gene YNR059W", "value": 0.8},
      {"measurement": "The level of expressed mRNA in the presence of chemical substance/absence: YOL026C", "setting": "gene YOL026C", "value": 0.9},
      {"measurement": "The level of expressed mRNA in the presence of chemical substance/absence: YOL030W", "setting": "gene YOL030W", "value": 0.9},
      {"measurement": "level of expressed mRNA in the presence of chemical substance/in its absence", "setting": "gene YOL058W", "value": 1.3},
      {"measurement": "level of expressed mRNA in the presence of chemical substance/in its absence", "setting": "gene YOL126C", "value": 1.1},
      {"measurement": "level of expressed mRNA in the presence of chemical substance/in its absence", "setting": "gene YOL143C", "value": 1.2},
      {"measurement": "level of expressed mRNA in the presence of chemical substance/in its absence", "setting": "gene YOL153C", "value": 1.9},
      {"measurement": "level of expressed mRNA in the presence of chemical substance/in its absence", "setting": "gene YOL157C", "value": 1.2},
      {"measurement": "The level of expressed mRNA in the presence of chemical substance/absence: YOR022C", "setting": "gene YOR022C", "value": 0.8},
      {"measurement": "The level of expressed mRNA in the presence of chemical substance/absence: YOR087W", "setting": "gene YOR087W", "value": 0.8},
      {"measurement": "The level of expressed mRNA in the presence of chemical substance/absence: YOR088W", "setting": "gene YOR088W", "value": 0.6},
      {"measurement": "level of expressed mRNA in the presence of chemical substance/in its absence", "setting": "gene YOR099W", "value": 1.1},
      {"measurement": "level of expressed mRNA in the presence of chemical substance/in its absence", "setting": "gene YOR130C", "value": 0.9},
      {"measurement": "level of expressed mRNA in the presence of chemical substance/in its absence", "setting": "gene YOR136W", "value": 1.2},
      {"measurement": "The level of expressed mRNA in the presence of chemical substance/absence: YOR138C", "setting": "gene YOR138C", "value": 0.9},
      {"measurement": "The level of expressed mRNA in the presence of chemical substance/absence: YOR155C", "setting": "gene YOR155C", "value": 0.5},
      {"measurement": "The level of expressed mRNA in the presence of chemical substance/absence: YOR253W", "setting": "gene YOR253W", "value": 0.7},
      {"measurement": "The level of expressed mRNA in the presence of chemical substance/absence: YOR267C", "setting": "gene YOR267C", "value": 0.9},
      {"measurement": "The level of expressed mRNA in the presence of chemical substance/absence: YOR325W", "setting": "gene YOR325W", "value": 0.9},
      {"measurement": "level of expressed mRNA in the presence of chemical substance/in its absence", "setting": "gene YOR336W", "value": 1.0}
    ]}
  ]
}
